Source: US7067517B2 (priority 2001, dated 2006)
Like-named read-outs stand apart in the source and are kept apart here.

How the values were obtained:
[1] = molecular target: T1, Hormone-sensitive lipase (HSL) (Homo sapiens, UniProt Q05469); format: biochemical
T1 sequence (Q05469 1-1076): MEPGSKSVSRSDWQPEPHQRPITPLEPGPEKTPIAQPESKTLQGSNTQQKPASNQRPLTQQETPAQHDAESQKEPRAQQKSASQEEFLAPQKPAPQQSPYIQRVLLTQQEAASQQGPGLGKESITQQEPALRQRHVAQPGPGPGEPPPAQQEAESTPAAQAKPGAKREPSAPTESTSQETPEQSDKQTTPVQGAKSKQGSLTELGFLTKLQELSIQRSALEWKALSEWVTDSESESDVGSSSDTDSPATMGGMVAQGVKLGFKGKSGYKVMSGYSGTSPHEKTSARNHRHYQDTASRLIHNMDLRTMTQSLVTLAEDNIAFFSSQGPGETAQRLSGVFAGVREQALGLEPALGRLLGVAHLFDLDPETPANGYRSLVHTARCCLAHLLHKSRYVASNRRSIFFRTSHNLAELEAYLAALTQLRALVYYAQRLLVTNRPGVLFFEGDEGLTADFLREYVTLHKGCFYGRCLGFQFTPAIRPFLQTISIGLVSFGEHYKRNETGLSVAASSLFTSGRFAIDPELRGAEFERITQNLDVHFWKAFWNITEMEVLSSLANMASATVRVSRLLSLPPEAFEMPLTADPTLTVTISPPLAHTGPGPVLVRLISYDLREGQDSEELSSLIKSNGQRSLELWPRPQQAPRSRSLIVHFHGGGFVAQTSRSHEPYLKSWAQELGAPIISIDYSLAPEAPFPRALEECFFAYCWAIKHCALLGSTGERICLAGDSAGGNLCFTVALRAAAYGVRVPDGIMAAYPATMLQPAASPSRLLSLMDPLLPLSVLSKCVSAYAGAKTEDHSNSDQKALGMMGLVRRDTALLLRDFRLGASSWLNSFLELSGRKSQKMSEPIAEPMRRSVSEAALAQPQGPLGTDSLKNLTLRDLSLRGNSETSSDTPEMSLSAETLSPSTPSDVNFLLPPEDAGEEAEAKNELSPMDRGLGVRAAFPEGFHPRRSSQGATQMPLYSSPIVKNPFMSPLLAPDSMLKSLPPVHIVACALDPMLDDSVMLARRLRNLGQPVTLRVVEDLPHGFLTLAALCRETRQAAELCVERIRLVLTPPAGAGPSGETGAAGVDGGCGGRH
Source text: (§1) Materials. The Hormone-sensitive lipase was provided by Dr. Cecilia Holm, from Lund University Sweden or produced and purified by Novo Nordisk (NN) using the reagents and protocols used by Dr. Holm. The substrates used are: ^3H-labeled triolein (TO) from Amersham, Buckinghamshire, U.K. cat No. TRA191; 5–20 Ci/mmol dissolved in toluene, triolein (Sigma, Cat. No. T-1740), fluorochrome-labeled triacylglyceride (cis-octadec-9-enoic acid 2-[12-(7-nitrobenzo[1,2,5]oxadiazol-4-ylamino)dodecanoyloxy]-1-cis-octadec-9-enoyloxymethyl-ethyl ester) prepared by Novo Nordisk (NN) by conventional methods, and 1,3-(di[^3H]-stearin), 2-(PEG-Boitin)glycerol prepared in collaboration with Amersham Pharmacia Biotech, UK and described in WO 01/073442. Phosphatidyl choline (PC) and phosphatidyl inositol (PI) are from Sigma (St Luis Mo. cat. Nos. P-3556 and P-5954 respectively). All other reagents are of commercial grade and obtained from various commercial sources.
2898.2: This method is an enzyme assay based upon SPA (scintillation proximity assay) particles. The substrate, 1,3-(di-[^3H]-stearin), 2-(PEG-Biotin)-glycerol, is marked with ^3H in both fatty acid moieties in the tri-glyceride. The third moiety of the tri-glyceride is a PEG linked Biotin. The substrate binds through Biotin to streptavidin in the SPA particles and the proximity between the radioactive tritium in the stearic acid moiety and the SPA particle results in emission of light from the SPA particles. The assay is an on-bead assay where HSL degrades the substrate, where after ^3H-stearin acid is released from the bead. The amount of light emitted is proportional to the amount of substrate bound to the receptor. When a compound that inhibits the activity of HSL is present it results in a decrease in degradation of the substrate and thus an increase in the amount of light emitted and a concomitant increase in % Eff. % Eff(% Inhibition)=(S−S0Eff)/(SmaxEff−S0Eff)×100 Where S=signal in dpm., SOEff=no inhibitor added, SmaxEff=with maximum concentration of inhibitor. Results

[2] = molecular target: T1, Hormone-sensitive lipase (HSL); test: biochemical; format: biochemical; details: for activity at 10 µM: read-out: Test 3180.2 HSL % ACTIVITY All
Source text: as §1
3180.2: Assay for determination of percent inhibition by compound at 10 μM concentration.
A lipid emulsion with ^3H-Triolein and phospholipid is used as substrate with a standard cencentration of highly purified HSL. BSA is added as product receptor. The substrate is prepared as follows:
30 μl PC:PI (20 mg/ml solution of PC:PI 3:1 prepared in chloroform)+128 μl cold TO+15 μl ^3H-TO are mixed and then evaporated under a gentle stream of N2 followed by 20–30 minutes in a Speedvac to ensure the absence of residual solvent.
Compound and HSL are incubated for 30 min at 25° C. before addition of substrate. Reaction is stopped after 30 min at 25° C. by adding a mixture of methanol, chloroform and heptane at high pH. Formed product is separated from substrate by phase separation.
Results are given as percent activity relative to an un-inhibited sample (no compound).

[3] = molecular target: T1, Hormone-sensitive lipase (HSL); test: biochemical; details: read-out: Test 3190.1 HSL_FL % ACTIVITY All
Experimental: Materials. The Hormone-sensitive lipase was provided by Dr. Cecilia Holm, from Lund University Sweden or produced and purified by Novo Nordisk (NN) using the reagents and protocols used by Dr. Holm. […] All other reagents are of commercial grade and obtained from various commercial sources.
BSA is added as product receptor. The transfer of the fluorochrome from the lipid phase to the water (BSA) phase changes the fluorescent properties of the fluorochrome. The changes can be monitored on a fluorimeter with an excitation wavelength of 450 nm and an emission wavelength of 545 nm.
Compound and HSL (20 μL compound, 10 μL enzyme and 70 μL PED-BSA buffer) is pre-incubated for 30 min at 25° C. before addition of substrate (100 μL). Amount of formed product is measured after 120 min incubation at 37° C.

[4] = SPA on-bead assay, % Eff (% Inhibition)
[5] = 10 μM concentration, percent activity relative to an un-inhibited sample (no compound)
[6] = 10 μM sample concentration, percent activity relative to a non-inhibited sample (no compound)

Compound: CN(C)C(=O)On1nnc2ccccc21 [Example 103, Dimethylcarbamic acid benzotriazol-1-yl ester]
- Test 2898.2 HSL2 % Inhibition All [1, 4]: 101.4%
- activity at 10 µM [2]: 2%

Compound: Cc1c(Cc2ccccc2)c(=O)oc2cc(OC(=O)N3CCOCC3)ccc12 [Example 92]
- Test 3180.2 HSL % ACTIVITY All [2, 5]: 62%

Compound: CSc1nc(-c2ccc(-c3ccccc3)cc2)nn1C(=O)N(C)C [Example 123, N,N-Dimethyl-3-biphenyl-4-yl-5-methylsulfanyl-[1,2,4]triazole-1-carboxamide]
- activity at 10 µM [2, 5]: 22%

Compound: CSc1nc(-c2ccc3ccccc3c2)nn1C(=O)N(C)C [Example 121, N,N-Dimethyl-5-methylsulfanyl-3-naphthalen-2-yl-[1,2,4]triazole-1-carboxamide]
- activity at 10 µM [2, 5]: 24%

Compound: CN(C(=O)On1ccnn1)c1ccccc1 [Example 144, Methyl-phenyl-carbamic acid [1,2,3]triazol-1-yl ester]
- melting point: 105 to 106 °C
- activity at 10 µM [3]: 25%

Compound: CC(C)(C)Oc1ccc(OC(=O)N2CCOCC2)cc1 [Example 87, Morpholine-4-carboxylic acid 4-tert-butoxy-phenyl ester]
- melting point: 128.8 to 129.5 °C
- activity at 10 µM [3, 6]: 48%

Compound: O=C(Nc1cccn1-c1ncc(C(F)(F)F)cc1Cl)Oc1ccc(Cl)cc1 [Example 117, [1-(3-Chloro-5-trifluoromethyl-pyridin-2-yl)-1H-pyrrol-2-yl]-carbamic acid 4-chloro-phenyl ester]
- activity at 10 µM [2, 5]: 2%

Compound: CCSc1nc(-c2ccc(Cl)cc2)nn1C(=O)N(C)C [Example 122, N,N-Dimethyl-3-(4-chloro-phenyl)-5-ethylsulfanyl-[1,2,4]triazole-1-carboxamide]
- activity at 10 µM [2, 5]: 14%

Compound: CSc1nc(-c2ccc(Cl)cc2)nn1C(=O)N1CCOCC1 [Example 120, [3-(4-Chlorophenyl)-5-methylsulfanyl-[1,2,4]triazol-1-yl]-morpholin-4-yl-methanone]
- activity at 10 µM [2, 5]: 40%

Compound: Cc1ccc(CSc2nnc(OC(=O)N(C)C)n2-c2cccc(Cl)c2)cc1 [Example 133, Dimethyl carbamic acid 4-(3-chloro-phenyl)-5-(4-methyl-benzylsulfanyl)-4H-[1,2,4]triazol-3-yl ester]
- Test 2898.2 HSL2 % Inhibition All [1, 4]: 15.8%

Compound: CC(C)C(Cl)=NOC(=O)NCc1ccc(F)cc1 [Example 112, N-(4-Fluorobenzylcarbamoyloxy)-isobutyrimidoyl chloride]
- Test 2898.2 HSL2 % Inhibition All [1, 4]: 86%

Compound: CCCCCCSc1nc(-c2ccc(C)cc2)nn1C(=O)N(C)c1ccccc1 [Example 118, N-Methyl-N-phenyl-5-hexylsulfanyl-3-p-tolyl-[1,2,4]triazole-1-carboxamide]
- activity at 10 µM [2, 5]: 24%

Compound: CC(C)C(Cl)=NOC(=O)NCC(O)c1ccccc1 (centres unmarked) [Example 113, N-(2-Hydroxy-2-phenylethylcarbamoyloxy)-isobutyrimidoyl chloride]
- Test 2898.2 HSL2 % Inhibition All [1, 4]: 18.3%

Compound: N-Methyl-N-phenethyl-5-ethyl-3-(4-chlorophenyl)-[1,2,4]triazole-1-carboxamide [Example 119]
- Test 3180.2 HSL % ACTIVITY All [2, 5]: 10%

Compound: CN(C(=O)Oc1ccc(Oc2ccc(C(F)(F)F)cn2)cc1)C1CCCCC1 [Example 59, Cyclohexyl-methyl-carbamic acid 4-(5-trifluoromethyl-pyridin-2-yloxy)-phenyl ester]
- activity at 10 µM [3]: 16%

Compound: 1-Biphenyl-4-yl-3-methylamino-propenone-cyclohexyl-carbamic acid [Example 115]
- Test 2898.2 HSL2 % Inhibition All [1]: 73.6%
- Test 3180.2 HSL % ACTIVITY All ([2]; 10 µM): 85%

Compound: COc1ccc(OC)c(-c2c(C)c3ccc(OC(=O)N(C)c4ccccc4)cc3oc2=O)c1 [Example 48, Methyl-phenyl-carbamic acid 3-(2,5-dimethoxy-phenyl)-4-methyl-2-oxo-2H-chromen-7-yl ester]
- activity at 10 µM [3]: 15%

Compound: CSc1nc(-c2ccc(Cl)cc2)nn1C(=O)N(C)C [Example 124, N,N-Dimethyl-3-(4-chloro-phenyl)-5-methylsulfanyl-[1,2,4]triazole-1-carboxamide]
- Test 2898.2 HSL2 % Inhibition All [1, 4]: 75.1%

Compound: CCN(C(=O)Oc1ccc(Oc2ccc(C(F)(F)F)cc2)cc1)c1ccccc1 [Example 54, Ethyl-phenyl-carbamic acid 4-(4-trifluoromethyl-phenoxy)-phenyl ester]
- activity at 10 µM [3, 6]: 52%
